ChEMBL document CHEMBL5724696, “Autophagy assay results for EUbOPEN Chemogenomics Library” (2024)

Columns and labels:
Assay type in all cases: functional, Homo sapiens
U2OS [1] = test: (§1) Here: values are normalized to the negative (DMSO; defined as 0% autophagy induction) and positive (250nM Torin1; mTOR inhibitor; defined as maximal inducer of autophagy = 100%) control compounds and represented as % of autophagy induction. […] The impact of autophagy induction on cells is complex and depends on the affected target. As such, the magnitude of a phenotype may not be equally mirrored in the %-value of autophagy induction and vice versa. The dynamics of the induction may indicate the mode of activation: e.g. activation via phosphorylation or a signaling cascade may occur fast, while activation via transcription factors may take considerably longer. […] Of note, treatment concentrations may be sub-optimal for specific compounds, leading to false negative annotations.; conditions: Culturing Media DMEM, 1 % Penicillin/Streptomycin, 10% Fetal bovin serum Add-On: No, Screening Media Control DMEM, Screening Media Samples DMEM
TERT-RPE1 = test: as §1; conditions: Culturing Media DMEM/F12 (1:1), 1 % Penicillin/Streptomycin, 10% Fetal bovin serum Add-On: No, Screening Media Control DMEM/F12 (1:1), Screening Media Samples DMEM/F12 (1:1)
U2OS [2] = test: as §1; conditions: Culturing Media DMEM, 1 % Penicillin/Streptomycin, 10% Fetal bovin serum Add-On: No, Screening Media Control DMEM, Screening Media Samples DMEM; remark: listed apart in the source
[3] = Compound Concentration 0.5 uM, Timepoint 12 hours
[4] = Compound Concentration 0.5 uM, Timepoint 24 hours
[5] = Compound Concentration 0.5 uM, Timepoint 36 hours
[6] = Compound Concentration 0.5 uM, Timepoint 60 hours
[7] = Compound Concentration 2 uM, Timepoint 12 hours
[8] = Compound Concentration 2 uM, Timepoint 24 hours
[9] = Compound Concentration 2 uM, Timepoint 36 hours
[10] = Compound Concentration 2 uM, Timepoint 60 hours
[11] = Compound Concentration 10 uM, Timepoint 12 hours
[12] = Compound Concentration 10 uM, Timepoint 24 hours
[13] = Compound Concentration 10 uM, Timepoint 36 hours
[14] = Compound Concentration 10 uM, Timepoint 60 hours

Cc1nc(C(=O)N2CCC[C@H]2Cc2nnc(-c3ccccc3)o2)c(-c2ccccc2F)s1
autophagy induction (U2OS [1]; [3]): 4.15%
autophagy induction (U2OS [1]; [4]): -0.2081%
autophagy induction (U2OS [1]; [5]): -2.227%
autophagy induction (U2OS [1]; [6]): -2.102%
autophagy induction (U2OS [1]; [7]): 0.7749%
autophagy induction (U2OS [1]; [8]): -1.115%
autophagy induction (U2OS [1]; [9]): -1.752%
autophagy induction (U2OS [1]; [10]): -2.832%
autophagy induction (U2OS [1]; [11]): 4.1851%
autophagy induction (U2OS [1]; [12]): 1.702%
autophagy induction (U2OS [1]; [13]): -1.044%
autophagy induction (U2OS [1]; [14]): -3.102%
autophagy induction (TERT-RPE1; [3]): -3.536%
autophagy induction (TERT-RPE1; [4]): -6.3015%
autophagy induction (TERT-RPE1; [5]): -4.185%
autophagy induction (TERT-RPE1; [6]): -7.252%
autophagy induction (TERT-RPE1; [7]): -4.803%
autophagy induction (TERT-RPE1; [8]): -6.585%
autophagy induction (TERT-RPE1; [9]): -5.999%
autophagy induction (TERT-RPE1; [10]): -9.333%
autophagy induction (TERT-RPE1; [11]): 0.2716%
autophagy induction (TERT-RPE1; [12]): 0.5174%
autophagy induction (TERT-RPE1; [13]): 2.2318%
autophagy induction (TERT-RPE1; [14]): 3.905%
autophagy induction (U2OS [2]; [3]): 13.4134%
autophagy induction (U2OS [2]; [4]): 8.147%
autophagy induction (U2OS [2]; [5]): 0.9843%
autophagy induction (U2OS [2]; [6]): 3.676%
autophagy induction (U2OS [2]; [7]): 5.837%
autophagy induction (U2OS [2]; [8]): 5.052%
autophagy induction (U2OS [2]; [9]): 3.424%
autophagy induction (U2OS [2]; [10]): -6.267%
autophagy induction (U2OS [2]; [11]): 0.7146%
autophagy induction (U2OS [2]; [12]): 3.711%
autophagy induction (U2OS [2]; [13]): -0.07108%
autophagy induction (U2OS [2]; [14]): -6.907%

CC(C)(N)C(=O)N[C@H](COCc1ccccc1)C(=O)N1CCC2(CC1)CN(S(C)(=O)=O)c1ccccc12.CS(=O)(=O)O [IBUTAMOREN MESYLATE]
autophagy induction (U2OS [1]; [3]): 0.1513%
autophagy induction (U2OS [1]; [4]): -2.852%
autophagy induction (U2OS [1]; [5]): -1.869%
autophagy induction (U2OS [1]; [6]): 114.207%
autophagy induction (U2OS [1]; [7]): 2.232%
autophagy induction (U2OS [1]; [8]): 1.174%
autophagy induction (U2OS [1]; [9]): -0.1276%
autophagy induction (U2OS [1]; [10]): 113.997%
autophagy induction (U2OS [1]; [11]): 21.0515%
autophagy induction (U2OS [1]; [12]): 11.8835%
autophagy induction (U2OS [1]; [13]): 9.457%
autophagy induction (U2OS [1]; [14]): 114.001%
autophagy induction (U2OS [2]; [3]): -8.194%
autophagy induction (U2OS [2]; [4]): -5.824%
autophagy induction (U2OS [2]; [5]): -3.752%
autophagy induction (U2OS [2]; [6]): 0.1138%
autophagy induction (U2OS [2]; [7]): -4.688%
autophagy induction (U2OS [2]; [8]): -1.11%
autophagy induction (U2OS [2]; [9]): 1.85%
autophagy induction (U2OS [2]; [10]): -0.8182%
autophagy induction (U2OS [2]; [11]): 7.887%
autophagy induction (U2OS [2]; [12]): 2.743%
autophagy induction (U2OS [2]; [13]): 7.197%
autophagy induction (U2OS [2]; [14]): 14.096%

O=C1O[C@]2(CC[C@H](C(=O)Nc3ccn(-c4ccccc4F)n3)CC2)c2cnccc21 [MK-0557]
autophagy induction (U2OS [1]; [3]): 3.984%
autophagy induction (U2OS [1]; [4]): 1.732%
autophagy induction (U2OS [1]; [5]): 0.4919%
autophagy induction (U2OS [1]; [6]): 114.165%
autophagy induction (U2OS [1]; [7]): 0.04111%
autophagy induction (U2OS [1]; [8]): -0.7319%
autophagy induction (U2OS [1]; [9]): -2.648%
autophagy induction (U2OS [1]; [10]): 114.407%
autophagy induction (U2OS [1]; [11]): 2.947%
autophagy induction (U2OS [1]; [12]): -1.736%
autophagy induction (U2OS [1]; [13]): -2.592%
autophagy induction (U2OS [1]; [14]): 114.447%
autophagy induction (U2OS [2]; [3]): 2.719%
autophagy induction (U2OS [2]; [4]): -3.33%
autophagy induction (U2OS [2]; [5]): -1.0176%
autophagy induction (U2OS [2]; [6]): -10.434%
autophagy induction (U2OS [2]; [7]): 13.2836%
autophagy induction (U2OS [2]; [8]): 10.9196%
autophagy induction (U2OS [2]; [9]): 6.623%
autophagy induction (U2OS [2]; [10]): 2.549%
autophagy induction (U2OS [2]; [11]): 4.4586%
autophagy induction (U2OS [2]; [12]): 4.355%
autophagy induction (U2OS [2]; [13]): 0.9374%
autophagy induction (U2OS [2]; [14]): -12.6304%
